{
  "source": "patent US9532938B2",
  "about": "“Esters of O-substituted hydroxy carboxylic acids and preparations thereof” (Eastman Chemical Company, priority 2010, dated 2017)",
  "molecular_target": "T1, Novozym 435 (Candida antarctica lipase B immobilized on acrylic resin) (Moesziomyces antarcticus, UniProt P41365)",
  "T1 construct": "purchased",
  "T1 sequence (P41365 26-342)": "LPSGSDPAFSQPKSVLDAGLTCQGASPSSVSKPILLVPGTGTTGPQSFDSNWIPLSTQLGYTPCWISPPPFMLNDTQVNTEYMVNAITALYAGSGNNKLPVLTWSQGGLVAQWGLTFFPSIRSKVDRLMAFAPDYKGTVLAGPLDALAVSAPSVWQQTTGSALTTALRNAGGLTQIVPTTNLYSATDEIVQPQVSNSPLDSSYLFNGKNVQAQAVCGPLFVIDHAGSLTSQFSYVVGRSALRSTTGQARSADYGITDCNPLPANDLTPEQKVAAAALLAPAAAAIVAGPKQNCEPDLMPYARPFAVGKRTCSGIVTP",
  "assay": "Enzymatic hydrolysis of oleyl glycolyl retinoate with Novozym 435",
  "assay_type": "in vitro ADME",
  "conditions": "toluene / pH 7 phosphate buffer",
  "description": "Oleyl glycolyl retinoate (50 mg; 0.082 mmol) was dissolved in 1 mL of toluene. pH 7 Phosphate buffer (1 mL) was added followed by Novozym 435 (50 mg). The mixture was stirred for 1 h at ambient temperature to afford 5% hydrolysis according to HPLC analysis.",
  "data": [
    {"smiles": "CCCCCCCC/C=C\\CCCCCCCCOC(=O)COC(=O)/C=C(C)/C=C/C=C(C)/C=C/C1=C(C)CCCC1(C)C", "note": "[Oleyl glycolyl retinoate, Oleyl Glycolyl Retinoate]", "values": [
      {"measurement": "hydrolysis according to HPLC analysis", "setting": "Novozym 435 (50 mg), stirred 1 h at ambient temperature", "result": 5, "unit": "%"},
      {"measurement": "hydrolysis, control reaction without enzyme", "setting": "no enzyme, ambient temperature", "result": "no hydrolysis"}
    ]}
  ]
}
